# From patent US20060194819A1, “Activation specific inhibitors of nf-kb and method of treating inflammatory processes in cardio-vascular diseases” (PROCORDE GMBH, priority 2003, published 2006)
# Experiments:
# IKK-complex = target: T1, IKK-complex (Homo sapiens, UniProt O14920+O15111+Q9Y6K9); assay: Cellular IKK kinase assay: HeLa cells treated with compound, TNF alpha stimulation, IKK-complex immunoprecipitated with anti-NEMO-antibody, I kappaB peptide phosphorylation by alpha screen; type: cell-based
# T1 construct: IKK-complex was immunoprecipitated with anti-NEMO-antibody; endogenous in cells; host or cells: HeLa
# T1 sequence (O14920 whole entry): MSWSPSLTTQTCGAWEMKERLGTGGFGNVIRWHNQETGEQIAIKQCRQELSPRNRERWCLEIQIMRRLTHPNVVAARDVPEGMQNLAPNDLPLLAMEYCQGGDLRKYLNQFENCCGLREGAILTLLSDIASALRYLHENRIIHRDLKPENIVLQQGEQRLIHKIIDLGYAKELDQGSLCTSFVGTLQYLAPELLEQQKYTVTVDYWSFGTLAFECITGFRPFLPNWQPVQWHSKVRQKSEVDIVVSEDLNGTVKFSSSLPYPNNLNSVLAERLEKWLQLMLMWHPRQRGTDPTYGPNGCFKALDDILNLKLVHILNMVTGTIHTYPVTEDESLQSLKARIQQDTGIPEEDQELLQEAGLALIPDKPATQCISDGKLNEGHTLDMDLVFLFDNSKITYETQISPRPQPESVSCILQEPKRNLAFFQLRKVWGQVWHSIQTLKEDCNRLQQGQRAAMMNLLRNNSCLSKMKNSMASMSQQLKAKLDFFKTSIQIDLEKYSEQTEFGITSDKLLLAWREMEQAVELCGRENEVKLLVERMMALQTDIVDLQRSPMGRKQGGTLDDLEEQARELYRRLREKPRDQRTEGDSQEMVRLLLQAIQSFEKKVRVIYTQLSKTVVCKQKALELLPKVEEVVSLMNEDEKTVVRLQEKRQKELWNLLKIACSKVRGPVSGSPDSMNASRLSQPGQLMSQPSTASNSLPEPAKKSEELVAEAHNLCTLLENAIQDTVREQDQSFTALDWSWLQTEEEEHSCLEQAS
# T1 sequence (O15111 whole entry): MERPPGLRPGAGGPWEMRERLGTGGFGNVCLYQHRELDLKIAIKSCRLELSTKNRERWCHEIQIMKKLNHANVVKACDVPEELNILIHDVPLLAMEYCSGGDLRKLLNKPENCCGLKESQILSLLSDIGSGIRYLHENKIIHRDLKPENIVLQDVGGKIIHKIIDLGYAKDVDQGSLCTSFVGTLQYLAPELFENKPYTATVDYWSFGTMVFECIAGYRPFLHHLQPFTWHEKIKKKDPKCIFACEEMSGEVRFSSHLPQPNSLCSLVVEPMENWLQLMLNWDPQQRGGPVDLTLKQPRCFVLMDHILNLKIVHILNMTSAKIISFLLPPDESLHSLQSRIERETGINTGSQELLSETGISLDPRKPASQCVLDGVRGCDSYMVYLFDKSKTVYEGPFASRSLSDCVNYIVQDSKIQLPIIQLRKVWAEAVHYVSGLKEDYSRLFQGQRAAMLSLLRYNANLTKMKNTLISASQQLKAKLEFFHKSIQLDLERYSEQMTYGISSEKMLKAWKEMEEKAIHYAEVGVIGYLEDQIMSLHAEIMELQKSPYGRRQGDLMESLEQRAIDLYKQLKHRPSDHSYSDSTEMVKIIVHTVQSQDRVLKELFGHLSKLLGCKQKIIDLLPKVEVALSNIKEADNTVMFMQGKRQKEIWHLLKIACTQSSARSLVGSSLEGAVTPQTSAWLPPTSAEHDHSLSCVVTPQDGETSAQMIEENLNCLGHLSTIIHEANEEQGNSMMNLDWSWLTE
# T1 sequence (Q9Y6K9 whole entry): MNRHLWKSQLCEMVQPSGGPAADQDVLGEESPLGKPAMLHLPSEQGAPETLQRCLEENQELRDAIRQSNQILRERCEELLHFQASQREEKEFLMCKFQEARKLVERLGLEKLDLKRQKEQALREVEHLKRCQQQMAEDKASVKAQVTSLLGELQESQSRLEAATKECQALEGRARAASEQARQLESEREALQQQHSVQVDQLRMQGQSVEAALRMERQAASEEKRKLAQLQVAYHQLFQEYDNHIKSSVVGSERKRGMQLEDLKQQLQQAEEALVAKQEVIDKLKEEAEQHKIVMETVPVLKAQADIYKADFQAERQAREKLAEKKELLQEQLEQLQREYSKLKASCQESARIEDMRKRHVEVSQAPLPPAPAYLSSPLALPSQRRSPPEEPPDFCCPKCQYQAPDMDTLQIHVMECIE
# Experimental: (§1) Kinase Assay Protocol: HeLa cells were maintained in Dulbecco's modified Eagle's medium (Invitrogen) supplemented with 10% fetal bovine serum, 2 mM L-glutamine, penicillin (50 units/ml) and streptomycin (50 μg/ml). 24 h before treatment with different compounds HeLa cells were plated at a density of 5×10^6 per well in 100-mm cell culture dishes to 90% confluences.
# The cells were incubated with different drugs at the concentration indicated for 1 h, washed twice with PBS and stimulated with 20 ng/ml TNF alpha (Roche). After 7 min the cells were washed twice with ice cold PBS followed by scraping and transferring into a 1.5 ml microcentrifuge tube. After centrifugation by 2000 rpm for 2 min by 4° C. the PBS supernatant was removed and 200 μl Lyse-buffer (10 mM Hepes, pH 7.9, 0.1% NP40, 10 mM, 300 mM Sucrose, 10 mM KCl, 15 mM MgCl2, 1 mM DTT, 0.5 mM PMSF and antipain, aprotinin, leupeptin each 0.75 μg/ml (Sigma) was added to the pellet. The resuspended pellet was incubated on ice for 5 min and centrifuged at 13000 g for 30 s. The supernatant, cytosolic extract, was added to 200 μl TNT-buffer (200 mM NaCl, 20 mM Tris/HCl pH 7.5, 1% Triton X-100). Unspecific binding was blocked by incubation with 3 μg of normal rabbit IgG (Sigma) and 6 mg resuspended and prewashed Protein A Sepharose CI-4B (Pharmacia Biotech) for 30 min by 4° C. followed by immunoprecipitation for 1.5 h at 4° C. with 2 μg of anti-NEMO-antibody (Santa Cruz Biotechnology) and 6 mg resuspented and prewashed Protein A Sepharose CI-4B (Parmacia Biotech). […] 6.6 μl of detection-buffer (20 mM Hepes pH 7.5, 100 mM NaCl, 1% Tween, 0.1 mM BSA, 50 μg/ml Protein A-Acceptor beads, 250 μg/ml Streptavidin-Donor beads (both Perkin-Elmer), 4 nM anti-phospho-IKB antibody (Santa Cruz Biotechnology) was dispensed to each well. After incubation for 1.5 h the plate was measured by alpha screen reader (Perkin Elmer). […]
# [1] = tested on: I KappaB alpha phosphorylation; assay: P-IkBalpha detection in Western blot of HeLa cell lysates after TNF alpha stimulation; type: cell-based; conditions: HeLa cells, 10 and 100 μM
# Experimental: as §1, with “P-IkBα Detektion in Western-Blot” for “Kinase Assay”
# The cells were incubated with different drugs at the concentration indicated for 1 h, washed twice with PBS and stimulated with 20 ng/ml TNF alpha (Roche). After 7 min the cells were washed twice with ice cold PBS followed by scraping and transferring into a 1.5 ml micro centrifuge tube. After centrifugation by 2000 rpm for 2 min by 4° C. the PBS supernatant was removed and 200 μl lysis-buffer (10 mM Hepes, pH 7.9, 0.1% NP40, 10 mM, 300 mM Sucrose, 10 mM KCl, 15 mM MgCl2, 1 mM DTT, 0.5 mM PMSF and antipain, aprotinin, leupeptin each 0.75 μg/ml (Sigma) was added to the pellet. The resuspended pellet was incubated on ice for 5 min and centrifuged at 13000 g for 30 s. 30 μl of the supernatant, cytosolic extract, was diluted with Laemmli-buffer (2% SDS, 2% 2-Mercaptoethanol, 0.01% Bromophenol blue, 8% Glycerine), heated by 60° C. for 10 min and loaded to a 4-20% polyacrylamid gels (BioRad). After electrophoresis the proteins were transferred to a nitrocellulose membrane using the wet blotting technique. First the membrane was blocked with Roti-Block (Roth) and afterwards incubated with monoclonal antibodies against P-IkBalpha (Santa Cruz Biotechnology, used at 1:200 dilution). This incubation was followed by the appropriate horseradish peroxidase-conjugated secondary antibody (Dianova) at 1:10000 dilution. Antibody binding was visualized on x-ray film using the Western blot Chemiluminescent Reagent Detection Kit (Santa Cruz).
# [2] = Serum levels after single dose IV application in rats, mass spectroscopy; type: in vivo; conditions: 27.5 and 55 μg IV, 2 and 20 minutes
# Experimental: COM 56 was diluted in saline-buffer to 100 μM and 200 μM in a volume of 200 μL. The probe was administered intravenously in rats. After 2 min and 20 min a blood probe was taken from the right carotid artery. The blood probes were centrifuged by 2500 g for 3 min and the supernatant, the serum component, were analysed by mass spectroscopy.
smiles,measurement,setting,value
"CCOC(=O)C1=C(C)N=c2s/c(=C/c3ccc(-c4cccc(C(=O)O)c4)o3)c(=O)n2C1c1ccc(Cl)cc1 (centres unmarked) [COM 56, 2-[5-(3-Carboxyphenyl)-furan-2-ylmethylene]-5-(4-chlorophenyl)-7-methyl-3-oxo-2,3-dihydro-5H-thiazolo[3,2-a]pyrimidine-6-carboxylic acid ethyl ester]",IC50,"IKK-complex; HeLa cells, TNF alpha 20 ng/ml, alpha screen, n=4, read-out: IC50 for inhibition of IKK activity (phosphorylation of substrate peptide for I KappaB)",~850 nM
same,"potency to inhibit the IKK activity, higher than the other 73 family members",IKK-complex; cellular assay with HeLa cells,10 times
same,"effect on IkappaB phosphorylation (Western blot), comparison of COM 73 and COM 54 family",[1],concentration-dependently inhibited
same,serum levels after single IV application,[2],considerable serum levels
same,serum levels after single IV application,[2]; listed as compound 56,positive serum probes
